Data reported in paper PMC8819291, “Adaptively evolved human oral actinomyces‐sourced defensins show therapeutic potential” (EMBO Molecular Medicine, 2021).
Like-named read-outs stand apart in the source and are kept apart here. Where a SMILES comes first, the peptide text is derived from it. Bridges are numbered along the chain shown (N, C = ends).

Tests used:
[1] = system: SM (Streptococcus mutans); test: Killing kinetics assay; type: cell-based; details: peptide dose 4 × C L
Method: In brief, SM was grown overnight in broth medium and diluted in fresh medium to 1 × 10^8 CFU/ml. […] Viable cell counts were obtained after 24 h of incubation at 37°C. Bacterial growth in the medium without peptides was used as a control.

[2] = system: SM membrane; test: Membrane permeability assay (propidium iodide); type: cell-based, Streptococcus mutans; details: 10 × C L; 5 × 10^5 cells in PBS pH 7.3, 1 μM PI
Method: Fluorescence was measured with the F‐4500 FL spectrophotometer (Hitachi High‐Technology Company, Japan).

[3] = system: SP R6; test: RNA sequencing of the stimulon; type: cell-based, Streptococcus pneumoniae; details: sub‐lethal concentration, 10 min
Method: Cells were harvested and washed with PBS buffer (pH 7.3) following further incubation for 10 min. Total RNA was isolated using the Bacteria Total RNA Isolation Kit (Sangon, China) according to the manufacturer’s instruction. RNA quality was assessed by NanoDrop and Agilent 2100 Bioanalyzer (Table EV6). After enrichment and fragment, mRNA was reverse transcribed into single‐strand DNA and then synthesized into double‐strand DNA. Following end‐filling, 5′‐phosphorylation, bubble adaptor ligation, and PCR amplification, a single‐strand circled DNA library was established for sequencing in BGISEQ‐500 sequencer (BGI, China) with a combinatorial probe‐anchor synthesis (cPAS) strategy.

[4] = Bioaffinity ESI-MS with UMP; type: binding, Staphylococcus aureus; details: 25 mM ammonium acetate (pH5.2)
Method: All components for interactions were dissolved in 25 mM ammonium acetate (pH5.2). Electrospray spectra were recorded with Waters SynaptG2‐Si mass spectrometer (Waters, Manchester, UK) and measurements were performed with positive ESI in resolution mode. Ions were scanned in a mass range of 500–2,000 m/z with the following conditions: the capillary voltage at 1,500 V; the cone voltage at 40 V; the source block temperature at 30°C. Spectra were recorded and processed by the software Masslynx4.1 (Waters, Manchester, UK).

[5] = system: salmon sperm DNA; details: 1.0 nmol AMSIN + salmon sperm DNA 6.6 mg/ml
Method: The rationality behind this experiment is that if a reduction in the inhibition‐zone size in the presence of DNA, it would indicate that the peptide binding to the DNA causes the loss of antibacterial activity. […] Inhibition zones were recorded and compared with the control without the DNA.

[6] = system: fresh erythrocytes from the female ICR mice; test: Hemolysis assay; type: cell-based, Mus musculus
Method: Hemolytic activity of peptides against fresh erythrocytes from the female ICR mice (Mus musculus) (25 g, 6 weeks of age) was assayed according to the standard method (Zhu et al, [2012]). Peptides were diluted with 0.9% NaCl to the indicated concentration. The percentage of hemolysis is determined as (A pep–A blank)/(A tot–A blank) × 100, in which “A” represents absorbance measured at 570 nm. A blank and A pep were evaluated in the absence or presence of peptides. One hundred percent hemolysis (A tot) was obtained in the presence of 1% Triton X‐100.

[7] = system: Methicillin‐resistant coagulase negative Staphylococci P1369; test: Inhibition-zone assay (lethal concentration); type: cell-based, Staphylococcus; details: Broth Medium, 37°C
Source text: Bacterial media used here included: Luria‐Bertani (LB) medium, THY medium (30 g Todd Hewitt broth and 5 g Yeast extract per liter), and tryptic soy broth (TSB) (Oxoid, Basingstoke, UK); Broth medium and brain–heart infusion (BHI) medium (Beijing Landbridge technology Limited by Share Ltd., Beijing, China); Potato dextrose (PD) medium (self‐prepared).
In brief, an overnight bacterial culture from a single colony was inoculated into fresh medium and grew to late log‐phase. A 10‐μl aliquot of each culture was diluted in 6‐ml pre‐heated medium containing 0.8% agar. The mixture was spread on a 9‐cm Petri dish, giving a depth of 1 mm. After settling, 3‐mm wells were punched in the plate and then 2‐μl peptide samples of different concentrations were added to each well. The agar plates were incubated overnight at indicated temperatures (Table EV4). A lethal concentration (C L ) was calculated from a plot of d^2 against log n, where d is the diameter (in cm) and n is the amount of sample applied in the well (in nmol). The plot is linear, and thus C L can be calculated from the slope (k) and the intercept (m) of this plot.

[8] = system: HL‐60 cells; test: Peptide-induced MCP-1 release (ELISA); type: cell-based, human; details: 24 h
Method: A549 and HL‐60 cells were purchased from the Cell Resource Center of the Chinese Academy of Medical Sciences (Beijing, China). They were tested for mycoplasma contamination with the Mycoplasma Detection Kit (Solarbio, China) and only negative cultures were used in our experiments. The cells were cultured in complete Dulbecco’s Modified Eagle Medium (DMEM) supplemented with 10% fetal bovine serum (FBS), penicillin (100 units/ml), and streptomycin ([…]) at 37°C in 5% CO2. The culture medium was changed every 2 days. Cells were passaged every 4–5 days with 0.25% trypsin (Gibco, USA). For enzyme‐linked immunosorbent assay (ELISA) (Hara et al, [2008]), A549 or HL‐60 cells were seeded in six‐well plates at a density of 1 × 10^5 cells/well and were incubated at 37°C in 5% CO2 overnight. Medium was aspirated and replaced with fresh complete DMEM supplemented with 10% FBS or serum‐free medium, both containing different concentrations of polypeptides for 24 h. Then, the supernatants were harvested for quantification of the IL‐8 amount in A549 by the Human CXCL8/IL‐8 Quantikine ELISA Kit (R&D Systems Inc., Minneapolis, MN, USA) and the MCP‐1 amount in HL‐60 by the Human MCP‐1 ELISA Kit (Boster Biological Technology Co., Ltd, Wuhan, China) as per the manufactures’ instructions.

Q: For `CC[C@H](C)[C@@H]1NC(=O)[C@H](CCCCN)NC(=O)CNC(=O)[C@H](CCCNC(=N)N)NC(=O)[C@@H]2CSSC[C@H](NC(=O)CNC(=O)[C@H](Cc3ccccc3)NC(=O)CN)C(=O)N3CCC[C@H]3C(=O)N[C@@H](Cc3c[nH]c4ccccc34)C(=O)N[C@@H](CC(N)=O)C(=O)N[C@@H](C)C(=O)N[C@@H](Cc3ccc(O)cc3)C(=O)N[C@@H](CCC(=O)O)C(=O)N[C@H]3CSSC[C@H](NC(=O)[C@H]([C@@H](C)O)NC(=O)[C@H](CCC(N)=O)NC(=O)[C@H](CCCNC(=N)N)NC1=O)C(=O)N[C@@H](Cc1c[nH]cn1)C(=O)N[C@H](C(=O)N[C@@H](Cc1ccc(O)cc1)C(=O)O)CSSC[C@H](NC(=O)[C@H](Cc1c[nH]cn1)NC(=O)[C@H](CCCNC(=N)N)NC(=O)[C@H](CC(=O)O)NC3=O)C(=O)N[C@@H](C(C)C)C(=O)N[C@@H](CO)C(=O)N[C@@H](CCCCN)C(=O)NCC(=O)N[C@@H](Cc1ccc(O)cc1)C(=O)N[C@@H]([C@@H](C)O)C(=O)NCC(=O)NCC(=O)N[C@@H](CC(N)=O)C(=O)N2` [AMSIN] (H-GFGCPWNAYECDRHCVSKGYTGGNCRGKIRQTCHCY-OH; disulfide 4-25, 11-33, 15-35; N-terminus and C-terminus assumed), which “Viable SM cells in killing kinetics” value ([1]; 0 min, start 1 × 10^8 CFU/ml) is on record?
A: Its value is 8 Log10 (CFU/mL).

Q: What about the “Viable SM cells in killing kinetics” value ([1]; 15 min) of the same compound?
A: The value was 9 Log10 (CFU/mL).

Q: And the “Viable SM cells in killing kinetics” value ([1]; 30 min)?
A: Its value is 8.9 Log10 (CFU/mL).

Q: And the “Viable SM cells in killing kinetics” value ([1]; 120 min)?
A: Its value is 8.7 Log10 (CFU/mL).

Q: What about the “Viable SM cells in killing kinetics” value ([1]; 240 min) of the same compound?
A: The value was 8.5 Log10 (CFU/mL).

Q: What about the “Effect on bacterial membrane integrity (propidium iodide fluorescence)” value [2] of the same compound?
A: Its value is “did not impair the integrity of bacterial membrane”.

Q: And the “Transcriptional profile compared with vancomycin” value [3]?
A: The value was “partly overlapped”.

Q: And the “Non-covalent complex with UMP by ESI-MS” value [4]?
A: Its value is “quadruply protonated complex”.

Q: What about the Inhibition zone ([5]; replicate 1) of the same compound?
A: Its Inhibition zone is 9.5 mm.

Q: What about the Inhibition zone ([5]; replicate 2) of the same compound?
A: Its Inhibition zone is 10 mm.

Q: And the Inhibition zone ([5]; replicate 3)?
A: Its Inhibition zone is 9.5 mm.

Q: And the “Hemolysis (%)” value ([6]; 6.25 μM, absorbance 570 nm, 100% = 1% Triton X‐100, technical replicate 1)?
A: The value was 1.49%.

Q: What about the “Hemolysis (%)” value ([6]; 6.25 μM, technical replicate 2) of the same compound?
A: The value was 1.24%.

Q: What about the “Hemolysis (%)” value ([6]; 6.25 μM, technical replicate 3) of the same compound?
A: The value was 1.65%.

Q: What about the “Hemolysis (%)” value ([6]; 12.5 μM, technical replicate 1) of the same compound?
A: Its value is 2.48%.

Q: And the “Hemolysis (%)” value ([6]; 12.5 μM, technical replicate 2)?
A: Its value is 1.98%.

Q: What about the “Hemolysis (%)” value ([6]; 12.5 μM, technical replicate 3) of the same compound?
A: Its value is 2.04%.

Q: What about the “Hemolysis (%)” value ([6]; 25 μM, technical replicate 1) of the same compound?
A: Its value is 6.96%.

Q: What about the “Hemolysis (%)” value ([6]; 25 μM, technical replicate 2) of the same compound?
A: Its value is 5.2%.

Q: And the “Hemolysis (%)” value ([6]; 25 μM, technical replicate 3)?
A: Its value is 5.2%.

Q: What about the “Lethal concentration (C L)” value [7] of the same compound?
A: The value was 1.07 µM.

Q: What about the “MCP-1” value ([8]; FBS-containing medium, 25 μg/mL, replicate 1) of the same compound?
A: Its value is 380 pg/mL.

Q: And the “MCP-1” value ([8]; FBS-containing medium, 25 μg/mL, replicate 2)?
A: The value was 485 pg/mL.

Q: And the “MCP-1” value ([8]; FBS-containing medium, 25 μg/mL, replicate 3)?
A: Its value is 359 pg/mL.

Q: And the “MCP-1” value ([8]; FBS-containing medium, 50 μg/mL, replicate 1)?
A: Its value is 453 pg/mL.

Q: What about the “MCP-1” value ([8]; FBS-containing medium, 50 μg/mL, replicate 2) of the same compound?
A: Its value is 523 pg/mL.

Q: And the “MCP-1” value ([8]; FBS-containing medium, 50 μg/mL, replicate 3)?
A: Its value is 432 pg/mL.

Q: What about the “MCP-1” value ([8]; FBS-containing medium, 100 μg/mL, replicate 1) of the same compound?
A: Its value is 419 pg/mL.

Q: And the “MCP-1” value ([8]; FBS-containing medium, 100 μg/mL, replicate 2)?
A: The value was 423 pg/mL.

Q: What about the “MCP-1” value ([8]; FBS-containing medium, 100 μg/mL, replicate 3) of the same compound?
A: Its value is 398 pg/mL.

Q: What about the “MCP-1” value ([8]; Serum-Free medium, 25 μg/mL, replicate 1) of the same compound?
A: The value was 393 pg/mL.

Q: And the “MCP-1” value ([8]; Serum-Free medium, 25 μg/mL, replicate 2)?
A: The value was 431 pg/mL.

Q: What about the “MCP-1” value ([8]; Serum-Free medium, 25 μg/mL, replicate 3) of the same compound?
A: The value was 372 pg/mL.

Q: What about the “MCP-1” value ([8]; Serum-Free medium, 50 μg/mL, replicate 1) of the same compound?
A: Its value is 447 pg/mL.

Q: What about the “MCP-1” value ([8]; Serum-Free medium, 50 μg/mL, replicate 2) of the same compound?
A: Its value is 450 pg/mL.

Q: What about the “MCP-1” value ([8]; Serum-Free medium, 50 μg/mL, replicate 3) of the same compound?
A: The value was 426 pg/mL.

Q: And the “MCP-1” value ([8]; Serum-Free medium, 100 μg/mL, replicate 1)?
A: The value was 418 pg/mL.

Q: What about the “MCP-1” value ([8]; Serum-Free medium, 100 μg/mL, replicate 2) of the same compound?
A: Its value is 427 pg/mL.

Q: And the “MCP-1” value ([8]; Serum-Free medium, 100 μg/mL, replicate 3)?
A: The value was 397 pg/mL.
